“Also recorded” adds a separate entry of the source. Counter-ions that a name gives are not always drawn.
Key:
[1] = tested on: constitutively active MEK1 (2-393); assay: MEK1 kinase assay (33P incorporation onto ERK2); type: biochemical
Experimental: N-terminal 6 His-tagged, constitutively active MEK1 (2-393) is expressed in E. coli and protein is purified by conventional methods (Ahn et al., Science 1994, 265, 966-970). The activity of MEK1 is assessed by measuring the incorporation of γ-^33P-phosphate from γ-^33P-ATP onto N-terminal His tagged ERK2, which is expressed in E. coli and is purified by conventional methods, in the presence of MEK1. The assay is carried out in 96-well polypropylene plate. The incubation mixture (100 μL) comprises of 25 mM Hepes, pH 7.4, 10 mM MgCl2, 5 mM β-glycerolphosphate, 100 μM sodium orthovanadate, 5 mM DTT, 5 nM MEK1, and 1 μM ERK2. Inhibitors are suspended in DMSO, and all reactions, including controls are performed at a final concentration of 1% DMSO. Reactions are initiated by the addition of 10 μM ATP (with 0.5 μCi γ-^33P-ATP/well) and incubated at ambient temperature for 45 minutes. Equal volume of 25% TCA is added to stop the reaction and precipitate the proteins. Precipitated proteins are trapped onto glass fiber B filterplates, and excess labeled ATP washed off using a Tomtec MACH III harvestor. Plates are allowed to air-dry prior to adding 30 μL/well of Packard Microscint 20, and plates are counted using a Packard TopCount.

[2] = Solubility in various media (amount dissolved after stirring with excess solid); type: physicochemical
Experimental: Due to the observation of the tosylate salt remaining as the salt form in solution, further investigations were performed to probe the solubility of the salts in various media. The amounts dissolved (mg/mL) in the various media after stirring either the Compound 1 free base or the Compound 1 tosylate salt with excess solid for 10 minutes and 60 minutes are shown in Table 4 (SIF=Simulated intestinal fluid; FaSIF=Fasted Simulated Intestinal Fluid).

[3] = Percent dissolution after 1 hour, tablet and powder form; type: physicochemical
Experimental: Dissolution of the free base of Compound 1 as well as the tosylate salt of Compound 1 was investigated at the 1 hour time point in both tablet form and powder form. The dissolution rate of the tosylate salt was generally much higher than that of the free base.

[4] = Relative stability of polymorphs; type: physicochemical; conditions: 1:1 anhydrous salt
[5] = Disproportionation study, slurry in pH 6.5 buffer, XRPD; type: physicochemical; conditions: for disproportionation of the salt to the free base in buffer: suspension/slurry in pH 6.5 buffer, XRPD, p-toluenesulfonate
Experimental: The characteristics of the salts in liquids were investigated by slurrying the material in a range of solvents including a buffer of pH 6.5 to simulate physiological conditions.
Compound 1 tosylate salt was slurried in pH 6.5 buffer at room temperature at a concentration of 100 mg in 2 mL. Samples were taken at 15 minute intervals up to 120 minutes.
In order to prepare the pH 6.5 slurry of Compound 1 tosylate salt, a buffer was first prepared by producing a first solution (Solution A) by adding 90.8 mg of potassium dihydrogen phosphate to a conical 100 mL flask. Deionised water was added to mark ensuring all solid had dissolved. A second solution (Solution B) was prepared by adding 118.8 mg of disodium hydrogen phosphate to a conical 100 mL flask and deionised water was added to mark ensuring all solid had dissolved. Then 64 mL of solution A was mixed with 32 mL of solution B to form a pH 6.5 buffer
The slurry was prepared by adding 100 mg of Compound 1 tosylate to a 10 mL vial and to this was added 2 mL of the pH 6.5 buffer (prepared above), a magnetic stir bar was added and vial placed on a magnetic stirrer. Small aliquots of the suspension were removed after 15 minutes, 30 minutes, 45 minutes, 60 minutes and 120 minutes and each sample was placed on a metal plate on the D8 Diffractometer and an XRPD pattern determined immediately. The results after 0, 15 and 60 minutes are shown in FIGS. 7, 8 and 9, respectively.

[6] = Solid state storage stability (disproportionation); type: physicochemical; conditions: 3 months storage at 40° C. and 5% relative humidity
[7] = Particle size reduction (milling, micronisation), PXRD; type: physicochemical; conditions: pestle and mortar 10 minutes or spiral jet mill, listed as tosylate salt, p-toluenesulfonate
Experimental: In order to investigate the potential for the materials to become amorphous during particle size reduction procedures, batches of the material were milled either by grinding the material in a pestle and mortar for 10 minutes or by micronising using conventional micronising equipment, in this case, a 2″ Spiral jet mill manufactured by Gravesend engineering. The products were subjected to PXRD as described in Example 4 above.

[8] = Dog study, plasma levels of Compound 1 after oral tablets; type: in vivo, Alderley Park Beagle Dogs; conditions: fasted dogs, 50 mg or 150 mg fbe
Experimental: A dog study was performed to measure plasma levels of Compound 1 in fasted dogs following oral administration of 50 mg free base equivalent (fbe) doses in tablets of the free base and the tosylate salt (form 2 of the 1:1 stoichiometric salt), and 150 mg fbe as 3×50 mg tablets of the tosylate salt.
Tablets of Compound 1 were manufactured using a standard direct compression process. Three batches were made containing Compound 1 free base or Compound 1 tosylate as the active pharmaceutical ingredient (API). The generic formulation contained API (12.5% w/w), fast flo lactose (72.0% w/w), Avicel PH102 (10.0% w/w), AcDiSol (4.0% w/w), sodium lauryl sulfate (0.5% w/w) and magnesium stearate (1.0% w/w). The required quantity of each formulation component, excluding magnesium stearate, was weighed and charged to a mixing vessel. The powders were then mixed for 30 minutes using a tumble blender. The powder mix was then sieved through a 425 μm sieve before being mixed for a further 15 minutes using the tumble blender. […] The required quantity of powder mix for each tablet was weighed individually and charged to the die before being compressed manually using a hand-operated press. […]
Dogs were fed about 400 g of Harlan Teklad 2021 each day and allowed water ad libitum. […] Plasma (50 mcL) was analysed for Compound 1 concentration.

[9] = Intrinsic and powder dissolution rate (pH 6.5); type: physicochemical
Experimental: In order to investigate the effects of salts on the release rate, an intrinsic dissolution (pH 6.5) was performed.

Cn1cnc2c(F)c(Nc3ccc(Br)cc3Cl)c(C(=O)NOCCO)cc21 [Compound 1, 6-(4-bromo-2-chloro-phenylamino)-7-fluoro-3-methyl-3H-benzoimidazole-5-carboxylic acid (2-hydroxy-ethoxy)-amide]
activity in MEK1 assay [1]: activity | amount dissolved ([2]; FaSSIF, 10 min, listed as Compound 1 free base): 0.01 mg/mL | amount dissolved ([2]; FaSSIF, 60 min, listed as Compound 1 free base): 0.01 mg/mL | amount dissolved ([2]; H2O, 10 min, listed as Compound 1 free base): 0.004 mg/mL | amount dissolved ([2]; SIF pH 6.5, 10 min, listed as Compound 1 free base): 0.004 mg/mL | amount dissolved ([2]; SIF pH 6.5, 60 min, listed as Compound 1 free base): 0.004 mg/mL | amount dissolved ([2]; Sorenson's buffer, 10 min, listed as Compound 1 free base): 0.004 mg/mL | amount dissolved ([2]; Sorenson's buffer, 60 min, listed as Compound 1 free base): 0.004 mg/mL | amount dissolved ([2]; pH 1.2, 10 min, listed as Compound 1 free base): 0.14 mg/mL | amount dissolved ([2]; pH 1.2, 60 min, listed as Compound 1 free base): 0.13 mg/mL | percent dissolution after 1 hour ([3]; FaSSIF, 50 mg (fbe) tablets, listed as Compound 1 Free base): 4.54% | percent dissolution after 1 hour ([3]; FaSSIF, powder, listed as Compound 1 Free base): 4.49% | percent dissolution after 1 hour ([3]; SIF pH 6.5, 50 mg (fbe) tablets, listed as Compound 1 Free base): 2.61% | percent dissolution after 1 hour ([3]; SIF pH 6.5, powder, listed as Compound 1 Free base): 2.36%

Cn1cnc2c(F)c(Nc3ccc(Br)cc3Cl)c(C(=O)NOCCO)cc21 [Form 2, 6-(4-bromo-2-chloro-phenylamino)-7-fluoro-3-methyl-3H-benzoimidazole-5-carboxylic acid (2-hydroxy-ethoxy)-amide p-toluenesulfonate]
stability relative to the other polymorph [4]: more stable than the salt in the form of the polymorph Form 1 | disproportionation of the salt to the free base in buffer [5]: some kinetic resistance to disproportionate

Cn1cnc2c(F)c(Nc3ccc(Br)cc3Cl)c(C(=O)NOCCO)cc21 [Compound 1 tosylate, 6-(4-bromo-2-chloro-phenylamino)-7-fluoro-3-methyl-3H-benzoimidazole-5-carboxylic acid (2-hydroxy-ethoxy)-amide p-toluenesulfonate]
amount dissolved ([2]; FaSSIF, 10 min, p-toluenesulfonate): 0.19 mg/mL | amount dissolved ([2]; FaSSIF, 60 min, p-toluenesulfonate): 0.04 mg/mL | amount dissolved ([2]; H2O, 10 min, p-toluenesulfonate): 0.058 mg/mL | amount dissolved ([2]; SIF pH 6.5, 10 min, p-toluenesulfonate): 0.041 mg/mL | amount dissolved ([2]; SIF pH 6.5, 60 min, p-toluenesulfonate): 0.020 mg/mL | amount dissolved ([2]; Sorenson's buffer, 10 min, p-toluenesulfonate): 0.019 mg/mL | amount dissolved ([2]; Sorenson's buffer, 60 min, p-toluenesulfonate): 0.007 mg/mL | amount dissolved ([2]; pH 1.2, 10 min, p-toluenesulfonate): 0.41 mg/mL | amount dissolved ([2]; pH 1.2, 60 min, p-toluenesulfonate): 0.19 mg/mL | disproportionation in the solid state [6]: no disproportionation | resistance to becoming amorphous on milling and micronisation [7]: highly resistant to becoming amorphous; also recorded: unique resistance to becoming amorphous | time the salt remains present in the slurry ([5]; pH 6.5 buffer, room temperature, 100 mg in 2 mL): up to 75 minutes | disproportionation of the salt to the free base in buffer ([5]; listed as Compound 1 tosylate salt): a small amount of free base is produced after 15 minutes | disproportionation of the salt to the free base in buffer [5]: little disproportionation | percent dissolution after 1 hour ([3]; FaSSIF, 50 mg (fbe) tablets, p-toluenesulfonate): 23.05% | percent dissolution after 1 hour ([3]; FaSSIF, powder, p-toluenesulfonate): 31.48% | percent dissolution after 1 hour ([3]; SIF pH 6.5, 50 mg (fbe) tablets, p-toluenesulfonate): 6.66% | percent dissolution after 1 hour ([3]; SIF pH 6.5, powder, p-toluenesulfonate): 5.16% | exposure (plasma Compound 1) versus free base [8]: substantial increase in exposure | intrinsic dissolution rate relative to the free base [9]: comparable to that of the free base | powder dissolution rate relative to the free base [9]: 60 times
